As a reminder, the pIC50 is the negative decadic logarithm of the IC50, by convention in mol/L. In general, IC50 refers to the midpoint of a concentration-inhibition curve.

SMILES strings stand for the structures. pIC50: −log10 of the molar value.

The first test deals with 80S14 (p21-deficient) cells. In words: Cytotoxicity assay using isogenic cell lines: IC50 in 80S14 (p21-deficient) cells, SRB. Format: cell-based, human. The conditions noted are these: 80S14 p21-deficient cells, 5 days incubation, SRB; read-out: IC50 for 80SI4. The method, then: Cytotoxicity Assay Using Isogenic Cell Lines: • 1. 80S14 (p21-deficient) cells were cultured in RPMI 1640 medium (Gibco/Invitrogen Life technologies) supplemented with 10% fetal bovine serum (FBS, Gibco) and 10 μg/ml gentamycin (Gibco). Cells were maintained at 37° C. under 7% CO2 • 2. Cells were plated at 6×10^4/ml (0.2 ml/well; 12,000 cells/well) in 96-well microtiter plates (Falcon or Corning/Costar) and incubated at 37° C. overnight (18-24 hours). • 3. 2-5 μl of the test agent [200 μg/ml stock in 20% DMSO/20 mM HEPES, pH 7.5 (Gibco)] was added to each well to achieve a final concentration of 2-5 μg/ml. Cells were incubated with the test compounds for 5 days at 37° C. • 4. Surviving cells were fixed with 50 μl 50% trichloroacetic acid (Sigma; 10% final concentration) for 1 hour at 4° C. • 5. Plates were rinsed twice with water (0.3 ml per wash using MRD8 robot), and allowed to dry. • 6. Sulforhodamine B (SRB) (Sigma; 0.4% in 1% acetic acid, 50 μl per well; MRD8 robot) was added and plates kept at room temperature for 10 minutes. • 7. Excess dye was removed by washing with 1% acetic acid (3 times, 0.3 ml per wash; MRD8 robot) and allowed to dry. • 8. The dye was solubilized in Tris base (Sigma; 10 mM, 150 μl per well). Plates were kept at room temperature for 30 minutes to allow the dye to diffuse. • 9. Absorbance was measured at 540 nm. • 10. The percentage of cells surviving drug treatment relative to control wells (no drug) was determined. • 11. The difference in % cell survival between the two cell lines was calculated. • 12. Compounds producing a difference score of >50 were considered to be selective for the p21-deficient cells and were evaluated further: Determination of selectivity of compounds for p21−/− cells: • 1. 80S14 cells were cultured as described above. • 2. Cells were seeded in 96-well microtiter plates at 12,000 cells/well (either 0.15 ml/well of 8×10^4 cells/ml suspension, or 0.2 ml/well of 6×10^4 cells/ml suspension). Plates were incubated at 37° C. overnight (18-24 hours). • 3. Serial dilutions of the test agent were added to each well. Dilutions were prepared either in 40% DMSO/20% methanol/20 mM HEPES, pH 7.5 (Gibco) or directly in growth medium. One of two dose ranges were used: 5 pM to 50 μM or 170 pg/ml to 10 μg/ml. Cells were incubated with the test compounds for 5 days at 37° C. • 4. Surviving cells were fixed with 50 μl 50% trichloroacetic acid (Sigma; 10% final concentration) for 1 hour at 4° C. • 5. Plates were rinsed extensively in water, and allowed to dry. • 6. Sulforhodamine B (Sigma; 0.4% in 1% acetic acid, 70 μl per well) was added and plates kept at room temperature for 10 minutes. • 7. Excess dye was removed by washing 5 times with 1% acetic acid and plates were allowed to dry. • 8. The dye was solubilized in Tris base (Sigma; 10 mM, 150 μl per well). Plates were placed on a titer plate shaker (Lab Line Instruments) for 5 minutes to allow the dye to diffuse. • 9. Absorbance was measured at 560 nm.
10. The drug concentration that inhibits cell proliferation by 50% relative to untreated controls (IC50) was determined from cytotoxicity curves.
Regarding `C=C(C)OC(=O)Nc1cccc(-c2ccnc3c(C(=O)c4cccs4)cnn23)c1` [Example 21], the pIC50 was greater than 6.00.
For `O=C(c1cccs1)c1cnn2c(-c3cccc(NC(=O)[C@@H]4CCCN4C(=O)C(F)(F)F)c3)ccnc12` [Example 52], the pIC50 was 5.00 to 6.00.
As to `O=C(c1cccs1)c1cnn2c(-c3cccc(NC(=O)C45CC6CC(CC(C6)C4)C5)c3)ccnc12` [Example 53, N-{3-[3-(thien-2-ylcarbonyl)pyrazolo[1,5-a]pyrimidin-7-Yl]phenyl}adamantine-1-carboxamide], the pIC50 is greater than 6.00.

Still in this test, the particulars now being: Homo sapiens, 80S14, 120 h, read-out: IC50 for 80SI4 (uM).
As for `C=CCCOC(=O)Nc1cccc(-c2ccnc3c(C(=O)c4cccs4)cnn23)c1` [Example 20, 3-butenyl 3-[3-(2-thienylcarbonyl)pyrazolo[1,5-a]pyrimidin-7-yl]phenylcarbamate], the IC50 was less than 1 µM.
Same read-out and setting: the result for `Cc1ccc(OC(=O)Nc2cccc(-c3ccnc4c(C(=O)c5cccs5)cnn34)c2)cc1` [Example 23, 4-methylphenyl 3-[3-(thien-2-ylcarbonyl)pyrazolo[1,5-a]pyrimidin-7-yl]phenylcarbamate] reads 10 to 50 µM; that for `CC(C)CC(=O)Nc1cccc(-c2ccnc3c(C(=O)c4cccs4)cnn23)c1` [Example 47, 3-methyl-N-{3-[3-(thien-2-ylcarbonyl)pyrazolo[1,5-a]pyrimidin-7-yl]phenyl}butanamide], less than 1 µM.
On to `CC(C)(C)C(=O)Nc1cccc(-c2ccnc3c(C(=O)c4cccs4)cnn23)c1` [Example 48, 2,2-dimethyl-N-{3-[3-(thien-2-ylcarbonyl)pyrazolo[1,5-a]pyrimidin-7-yl]phenyl}propanamide], for which the IC50 was less than 1 µM.

Still in this test, the particulars now being: Homo sapiens, 120 h; 80S14 p21-deficient cells, 5 days incubation, SRB; read-out: IC50 for 80SI4.
Take `O=C(Nc1cccc(-c2ccnc3c(C(=O)c4cccs4)cnn23)c1)OCc1ccccc1` [Example 24, benzyl 3-[3-(thien-2-ylcarbonyl)pyrazolo[1,5-a]pyrimidin-7-yl]phenylcarbamate]: the pIC50 was greater than 6.00.
Same read-out and setting: the result for `CS(=O)(=O)Nc1cccc(-c2ccnc3c(C(=O)c4cccs4)cnn23)c1` [Example 27, N-{3-[3-(thien-2-ylcarbonyl)pyrazolo[1,5-a]pyrimidin-7-yl]phenyl} methanesulfonamide] reads 5.00 to 6.00; that for `CCS(=O)(=O)Nc1cccc(-c2ccnc3c(C(=O)c4cccs4)cnn23)c1` [Example 28, N-{3-[3-(thien-2-ylcarbonyl)pyrazolo[1,5-a]pyrimidin-7-yl]phenyl}ethanesulfonamide], greater than 6.00; that for `CCCCS(=O)(=O)Nc1cccc(-c2ccnc3c(C(=O)c4cccs4)cnn23)c1` [Example 29, N-{3-[3-(thien-2-ylcarbonyl)pyrazolo[1,5-a]pyrimidin-7-yl]phenyl}butane-1-sulfonamide], 5.00 to 6.00.
The same measure, in the same setting: with `CC(C)S(=O)(=O)Nc1cccc(-c2ccnc3c(C(=O)c4cccs4)cnn23)c1` [Example 30, N-{3-[3-(thien-2-ylcarbonyl)pyrazolo[1,5-a]pyrimidin-7-yl]phenyl} propane-2-sulfonamide] the figure was 5.00 to 6.00; with `O=C(c1cccs1)c1cnn2c(-c3cccc(NS(=O)(=O)c4ccccc4)c3)ccnc12` [Example 31, N-{3-[3-(thien-2-ylcarbonyl)pyrazolo[1,5-a]pyrimidin-7-yl]phenyl}benzenesulfonamide], 5.00 to 6.00.
Still for that read-out and setting: with `Cc1ccc(S(=O)(=O)Nc2cccc(-c3ccnc4c(C(=O)c5cccs5)cnn34)c2)cc1` [Example 32, 4-methyl-N-{3-[3-(thien-2-ylcarbonyl)pyrazolo[1,5-a]pyrimidin-7-yl]phenyl}benzenesulfonamide] the figure was greater than 6.00.
Regarding `Cc1ccccc1S(=O)(=O)Nc1cccc(-c2ccnc3c(C(=O)c4cccs4)cnn23)c1` [Example 33, 2-methyl-N-{3-[3-(thien-2-ylcarbonyl)pyrazolo[1,5-a]pyrimidin-7-yl]phenyl}benzenesulfonamide], the pIC50 was greater than 6.00.
On the same count and under the same terms, with `O=C(c1cccs1)c1cnn2c(-c3cccc(NS(=O)(=O)c4ccc(F)cc4)c3)ccnc12` [Example 34, 4-fluoro-N-{3-[3-(thien-2-ylcarbonyl)pyrazolo[1,5-a]pyrimidin-7-yl]phenyl}benzenesulfonamide] the figure was greater than 6.00; with `O=C(c1cccs1)c1cnn2c(-c3cccc(NS(=O)(=O)c4ccc(Br)cc4)c3)ccnc12` [Example 35, 4-bromo-N-{3-[3-(thien-2-ylcarbonyl)pyrazolo[1,5-a]pyrimidin-7-yl]phenyl}benzenesulfonamide], 5.00 to 6.00; with `COc1ccc(S(=O)(=O)Nc2cccc(-c3ccnc4c(C(=O)c5cccs5)cnn34)c2)cc1` [Example 36, 4-methoxy-N-{3-[3-(thien-2-ylcarbonyl)pyrazolo[1,5-a]pyrimidin-7-yl]phenyl}benzenesulfonamide], 5.00 to 6.00.
As to `O=C(c1cccs1)c1cnn2c(-c3cccc(NS(=O)(=O)/C=C/c4ccccc4)c3)ccnc12` [Example 37, (E)-2-phenyl-N-{3-[3-(thien-2-ylcarbonyl)pyrazolo[1,5-a]pyrimidin-7-yl]phenyl}ethenesulfonamide], the pIC50 was 4.30 to 5.00.
The same measure, in the same setting: with `O=C(c1cccs1)c1cnn2c(-c3cccc(NS(=O)(=O)c4cccs4)c3)ccnc12` [Example 38, N-{3-[3-(thien-2-ylcarbonyl)pyrazolo[1,5-a]pyrimidin-7-yl]phenyl}thiophene-2-sulfonamide] the figure was 5.00 to 6.00; with `Cn1cnc(S(=O)(=O)Nc2cccc(-c3ccnc4c(C(=O)c5cccs5)cnn34)c2)c1` [Example 39, 1-methyl-N-{3-[3-(thien-2-ylcarbonyl)pyrazolo[1,5-a]pyrimidin-7-yl]phenyl}-1H-imidazole-4-sulfonamide], 4.30 to 5.00.
The same measure, in the same setting: the result for `CN(C)S(=O)(=O)Nc1cccc(-c2ccnc3c(C(=O)c4cccs4)cnn23)c1` [Example 40, N,N-dimethyl-N′-{3-[3-(thien-2-ylcarbonyl)pyrazolo[1,5-a]pyrimidin-7-yl]phenyl}sulfamide] reads 5.00 to 6.00; that for `CCOC(=O)C(=O)Nc1cccc(-c2ccnc3c(C(=O)c4cccs4)cnn23)c1` [Example 41, ethyl oxo({3-[3-(thien-2-ylcarbonyl)pyrazolo[1,5-a]pyrimidin-7-yl]phenyl}amino)acetate], 4.30 to 5.00.
Same read-out and setting: with `COC(=O)CCC(=O)Nc1cccc(-c2ccnc3c(C(=O)c4cccs4)cnn23)c1` [Example 42, methyl 4-oxo-4-({3-[3-(thien-2-ylcarbonyl)pyrazolo[1,5-a]pyrimidin-7-yl]phenyl}amino)butanoate] the figure was 4.30 to 5.00; with `C=C(C)C(=O)Nc1cccc(-c2ccnc3c(C(=O)c4cccs4)cnn23)c1` [Example 43, 2-methyl-N-{3-[3-(thien-2-ylcarbonyl)pyrazolo[1,5-a]pyrimidin-7-yl]phenyl}acrylamide], greater than 6.00.
`CC(C)=CC(=O)Nc1cccc(-c2ccnc3c(C(=O)c4cccs4)cnn23)c1` [Example 45, 3-methyl-N-{3-[3-(thien-2-ylcarbonyl)pyrazolo[1,5-a]pyrimidin-7-yl]phenyl}but-2-enamide]: the pIC50 was greater than 6.00.
As to `O=C(c1cccs1)c1cnn2c(-c3cccc(NC(=O)C(Cl)(Cl)Cl)c3)ccnc12` [Example 49, 2,2,2-trichloro-N-{3-[3-(thien-2-ylcarbonyl)pyrazolo[1,5-a]pyrimidin-7-yl]phenyl}acetamide], the pIC50 is 5.00 to 6.00.
On the same count and under the same terms, the result for `CSCCC(=O)Nc1cccc(-c2ccnc3c(C(=O)c4cccs4)cnn23)c1` [Example 50, 3-(methylthio)-N-{3-[3-(thien-2-ylcarbonyl)pyrazolo[1,5-a]pyrimidin-7-yl]phenyl}propanamide] reads greater than 6.00.

For the origin of these results see patent US20060063784A1, “Method of using substituted pyrazolo [1,5-a] pyrimidines” (priority 2004, published 2006).
